Results published in patent US11046722B2, “Sulphated disaccharides for the treatment of neuropathic pain” (BIOIBERICA, S.A.U., priority 2017, dated 2021).

Experiments:
[1] = test system: mechanical allodynia induced in mice by chronic ligation of the sciatic nerve; assay: Mechanical allodynia produced by chronic ligation of the sciatic nerve (von Frey, 50% pain threshold); type: in vivo; details: 7 days after surgery, 45 minutes before measurement
From the text: In Example 2, an experimental trial on mechanical allodynia induced in mice by chronic ligation of the sciatic nerve is described, according to the model described in the article by Decosterd et al., Spared nerve injury: an animal model of persistent peripheral neuropathic pain, Pain, 2000, 149-158. This model is based on causing mechanical allodynia in mice by means of ligation of two of the three branches of the sciatic nerve (tibial and peroneal), leaving the sural branch intact. The allodynia induced in this manner is quantified by the reduction observed in the threshold force that is necessary to apply in order to produce animal's paw withdrawal in those subjected to the ligation. As described in such example, it is observed that the administration of different doses of compound Ic is effective in reversing the allodynia induced in this model (FIGS. 1 and 2).
For this trial, groups of 6 to 7 mice were used for each group. Mechanical allodynia was induced in the animals (except for the control group) by chronic ligation of the sciatic nerve, and the allodynia induced in this manner was registered 7 days after performing the surgery.
Compound Ic was administered at different doses (3, 30 and 60 mg/Kg) as well as only saline solution as a control, and the positive control gabapentin (40 mg/Kg). The products were administered by stomach tube 45 minutes before performing the allodynia measurement, which was quantified using von Frey filaments, according to the force threshold necessary to cause paw withdrawal of the animal.
The results are summarized in FIG. 2, where the Y-axis represents half of the threshold force that is necessary to apply in order to cause paw withdrawal (50% pain threshold, in grams, g) and the X-axis indicates the different groups and treatments carried out. […]
An analogous test was carried out in which several doses of compound Ic (30, 60 and 120 mg/Kg) and gabapentin (40 mg/Kg) were administered, and the 50% pain threshold was measured at different times after the administration in order to evaluate the kinetic of the pharmacological effect and the total duration of the anti-allodynic effect. […]

[2] = test system: mechanical allodynia due to diabetes induced by injecting streptozotocin; assay: Diabetic allodynia induced by streptozotocin injection (von Frey, 50% pain threshold); type: in vivo, mice; details: streptozotocin 60 mg/Kg i.p. for five days, day 25, 45 minutes after administration
From the text: In Example 5 an experimental trial is described of mechanical allodynia in diabetic mice induced by intraperitoneal streptozotocin injection, based on the model described in the article by Courteix et al., Streptozotocin-induced diabetic rats: behavioural evidence for a model of chronic pain, Pain, 1993, 81-88. This model is based on causing a mechanical allodynia in mice by inducing diabetes by means of intraperitoneal streptozotocin injection. It is observed that the administration of different doses of compound Ic is effective in reversing the allodynia induced by diabetes, as quantified by the statistically significant increase observed in the treated animals, of the threshold force that is necessary to apply in order to produce paw withdrawal in the animals (FIG. 7). […] For the evaluation of the effect of the Ic compound on the allodynia induced in this manner by diabetes, five groups of animals were used with at least 7 animals in each group, and the allodynia was quantified using von Frey filaments, according to the force threshold necessary to cause the animal's paw's withdrawal. Compound Ic was administered orally to the animals by gavage, in a single administration and allodynia was measured in each animal immediately before the administration and 45 minutes after the administration. […]

With CO[C@H]1O[C@H](COS(=O)(=O)[O-])[C@@H](OS(=O)(=O)[O-])[C@H](O[C@@H]2O[C@H](C(=O)[O-])[C@@H](O)[C@H](O)[C@H]2O)[C@H]1NC(C)=O.[Na+].[Na+].[Na+] [Compound Ic, methyl 2-acetamido-2-desoxi-3-O-(β-D-glucopyranosyluronic acid)-4,6-di-O-sulfo-α-D-glucopyranoside trisodium salt] the anti-allodynic effect ([1]; 3 mg/Kg by stomach tube) was “notable”, the anti-allodynic effect ([1]; 30 mg/Kg by stomach tube) was “notable” and the analgesic effect ([1]; 60 mg/Kg by stomach tube) was “achieved an analgesic effect”. For the same compound, the “reversal of the allodynia” value ([1]; 60 mg/Kg by stomach tube) was “total reversal of the allodynia”, the “reversal of the allodynia induced by diabetes” value ([2]; 10 mg/kg single oral dose by gavage) was “effective at reversing the allodynia” and the “reversal of the allodynia induced by diabetes” value ([2]; 30 mg/kg single oral dose by gavage, differences statistically significant) was “effective at reversing the allodynia”.
